Source: PMC8429728, “TNK1 is a ubiquitin-binding and 14-3-3-regulated kinase that can be targeted to block tumor growth” (Nature Communications, 2021)
Where two headings read alike, the source gives them in different places.

What was measured:
Test in all cases: biochemical
Set-up in all cases: Reaction Biology 371-kinase panel at Km ATP, per cent enzyme activity relative to DMSO, single dose in duplicate
BRAF = BRAF (Homo sapiens, UniProt P15056); conditions: duplicate measurements, Km ATP
Outline: (§1)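 Percent kinase activity relative to vehicle (DMSO) is reported for a 371-kinase in vitro panel at 300 nM compound; IC50 values derive from variable-slope sigmoidal fits with the lower plateau fixed at 0.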

CAMK2g = CAMK2g (Homo sapiens, UniProt Q13555); conditions: duplicate measurements, Km ATP
Outline: as §1

DCAMKL1 = molecular target: T1, DCAMKL1 (Homo sapiens, UniProt O15075); conditions: duplicate measurements, Km ATP
T1 construct: gene DCLK1
Outline: as §1

DCAMKL2 = molecular target: T2, DCAMKL2 (Homo sapiens, UniProt Q8N568); conditions: duplicate measurements, Km ATP
T2 construct: gene DCLK2
Outline: as §1

DMPK2 = molecular target: T3, DMPK2 (Homo sapiens, UniProt Q6DT37); conditions: duplicate measurements, Km ATP; read-out: % Enzyme Activity (relative to DMSO controls) / TP-0005801 (0.3µM) / Data 1
T3 construct: gene CDC42BPG
Outline: as §1

FAK/PTK2 = FAK/PTK2 (Homo sapiens, UniProt Q05397); conditions: duplicate measurements, Km ATP
Outline: as §1

GRK1 = GRK1 (Homo sapiens, UniProt Q15835); conditions: duplicate measurements, Km ATP
Outline: as §1

HGK/MAP4K4 = HGK/MAP4K4 (Homo sapiens, UniProt O95819); conditions: duplicate measurements, Km ATP
Outline: as §1

JNK2 = molecular target: T4, JNK2 (Homo sapiens, UniProt P45984); conditions: duplicate measurements, Km ATP
T4 construct: gene MAPK9
Outline: as §1

MKK7 = molecular target: T5, MKK7 (Homo sapiens, UniProt O14733); conditions: duplicate measurements, Km ATP
T5 construct: gene MAP2K7
Outline: as §1

OSR1/OXSR1 = OSR1/OXSR1 (Homo sapiens, UniProt O95747); conditions: duplicate measurements, Km ATP
Outline: as §1

P38b/MAPK11 = P38b/MAPK11 (Homo sapiens, UniProt Q15759); conditions: duplicate measurements, Km ATP
Outline: as §1

PIM3 = PIM3 (Homo sapiens, UniProt Q86V86); conditions: duplicate measurements, Km ATP
Outline: as §1

PKAcb = molecular target: T6, PKAcb (Homo sapiens, UniProt P22694); conditions: duplicate measurements, Km ATP
T6 construct: gene PRKACB
Outline: as §1

PKCzeta = molecular target: T7, PKCzeta (Homo sapiens, UniProt Q05513); conditions: duplicate measurements, Km ATP
T7 construct: gene PRKCZ
Outline: as §1

SBK1 = SBK1 (Homo sapiens, UniProt Q52WX2); conditions: duplicate measurements, Km ATP
Outline: as §1

TRKB = molecular target: T8, TRKB (Homo sapiens, UniProt Q16620); conditions: duplicate measurements, Km ATP
T8 construct: gene NTRK2
Outline: as §1

TXK = TXK (Homo sapiens, UniProt P42681); conditions: duplicate measurements, Km ATP
Outline: as §1

ULK2 = ULK2 (Homo sapiens, UniProt Q8IYT8); conditions: duplicate measurements, Km ATP
Outline: as §1

WNK3 = WNK3 (Homo sapiens, UniProt Q9BYP7); conditions: duplicate measurements, Km ATP
Outline: as §1

[1] = read-out: % Enzyme Activity (relative to DMSO controls) / TP-0005801 (0.3µM) / Data 1
[2] = read-out: % Enzyme Activity (relative to DMSO controls) / TP-0005801 (0.3µM) / Data 2

P38b/MAPK11, sequence (Q15759 whole entry): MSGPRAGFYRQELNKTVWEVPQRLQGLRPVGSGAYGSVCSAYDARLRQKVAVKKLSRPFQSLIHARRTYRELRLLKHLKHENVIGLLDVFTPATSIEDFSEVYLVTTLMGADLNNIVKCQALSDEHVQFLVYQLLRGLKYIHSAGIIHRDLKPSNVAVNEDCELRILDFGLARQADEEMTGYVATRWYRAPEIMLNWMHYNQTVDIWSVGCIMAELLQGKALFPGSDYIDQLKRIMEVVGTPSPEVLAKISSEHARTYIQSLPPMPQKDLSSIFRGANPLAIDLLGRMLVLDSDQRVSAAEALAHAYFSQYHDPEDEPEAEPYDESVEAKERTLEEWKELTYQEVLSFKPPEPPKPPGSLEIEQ
OSR1/OXSR1, sequence (O95747 whole entry): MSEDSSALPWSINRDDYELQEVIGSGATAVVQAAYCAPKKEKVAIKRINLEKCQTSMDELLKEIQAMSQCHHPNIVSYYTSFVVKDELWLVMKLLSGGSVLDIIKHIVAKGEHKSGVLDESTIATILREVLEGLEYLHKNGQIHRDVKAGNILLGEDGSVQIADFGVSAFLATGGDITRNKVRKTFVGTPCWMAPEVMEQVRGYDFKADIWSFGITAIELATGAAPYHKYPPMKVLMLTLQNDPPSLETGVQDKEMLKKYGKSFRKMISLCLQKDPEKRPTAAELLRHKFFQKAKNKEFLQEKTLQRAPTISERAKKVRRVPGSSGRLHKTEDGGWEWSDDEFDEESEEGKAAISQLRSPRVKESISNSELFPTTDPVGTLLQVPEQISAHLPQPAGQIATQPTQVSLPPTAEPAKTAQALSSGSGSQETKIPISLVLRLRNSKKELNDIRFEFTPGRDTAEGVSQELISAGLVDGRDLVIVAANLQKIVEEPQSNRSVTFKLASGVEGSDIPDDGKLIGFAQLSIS
GRK1, sequence (Q15835 whole entry): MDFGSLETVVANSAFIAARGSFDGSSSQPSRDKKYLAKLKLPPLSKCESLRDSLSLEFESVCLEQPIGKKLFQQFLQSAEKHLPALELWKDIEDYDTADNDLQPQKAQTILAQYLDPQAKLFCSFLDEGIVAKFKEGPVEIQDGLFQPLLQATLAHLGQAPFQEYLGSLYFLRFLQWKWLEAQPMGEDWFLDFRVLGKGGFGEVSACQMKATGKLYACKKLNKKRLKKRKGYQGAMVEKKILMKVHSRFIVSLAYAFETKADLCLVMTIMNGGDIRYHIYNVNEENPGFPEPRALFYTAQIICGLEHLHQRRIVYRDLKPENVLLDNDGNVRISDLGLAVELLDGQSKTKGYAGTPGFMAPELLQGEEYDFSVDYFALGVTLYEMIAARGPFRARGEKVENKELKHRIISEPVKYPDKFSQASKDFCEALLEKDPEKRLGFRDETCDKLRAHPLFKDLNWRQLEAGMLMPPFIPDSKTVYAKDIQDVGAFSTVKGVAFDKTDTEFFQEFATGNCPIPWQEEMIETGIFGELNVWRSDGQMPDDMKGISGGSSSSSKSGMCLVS
HGK/MAP4K4, sequence (O95819 whole entry): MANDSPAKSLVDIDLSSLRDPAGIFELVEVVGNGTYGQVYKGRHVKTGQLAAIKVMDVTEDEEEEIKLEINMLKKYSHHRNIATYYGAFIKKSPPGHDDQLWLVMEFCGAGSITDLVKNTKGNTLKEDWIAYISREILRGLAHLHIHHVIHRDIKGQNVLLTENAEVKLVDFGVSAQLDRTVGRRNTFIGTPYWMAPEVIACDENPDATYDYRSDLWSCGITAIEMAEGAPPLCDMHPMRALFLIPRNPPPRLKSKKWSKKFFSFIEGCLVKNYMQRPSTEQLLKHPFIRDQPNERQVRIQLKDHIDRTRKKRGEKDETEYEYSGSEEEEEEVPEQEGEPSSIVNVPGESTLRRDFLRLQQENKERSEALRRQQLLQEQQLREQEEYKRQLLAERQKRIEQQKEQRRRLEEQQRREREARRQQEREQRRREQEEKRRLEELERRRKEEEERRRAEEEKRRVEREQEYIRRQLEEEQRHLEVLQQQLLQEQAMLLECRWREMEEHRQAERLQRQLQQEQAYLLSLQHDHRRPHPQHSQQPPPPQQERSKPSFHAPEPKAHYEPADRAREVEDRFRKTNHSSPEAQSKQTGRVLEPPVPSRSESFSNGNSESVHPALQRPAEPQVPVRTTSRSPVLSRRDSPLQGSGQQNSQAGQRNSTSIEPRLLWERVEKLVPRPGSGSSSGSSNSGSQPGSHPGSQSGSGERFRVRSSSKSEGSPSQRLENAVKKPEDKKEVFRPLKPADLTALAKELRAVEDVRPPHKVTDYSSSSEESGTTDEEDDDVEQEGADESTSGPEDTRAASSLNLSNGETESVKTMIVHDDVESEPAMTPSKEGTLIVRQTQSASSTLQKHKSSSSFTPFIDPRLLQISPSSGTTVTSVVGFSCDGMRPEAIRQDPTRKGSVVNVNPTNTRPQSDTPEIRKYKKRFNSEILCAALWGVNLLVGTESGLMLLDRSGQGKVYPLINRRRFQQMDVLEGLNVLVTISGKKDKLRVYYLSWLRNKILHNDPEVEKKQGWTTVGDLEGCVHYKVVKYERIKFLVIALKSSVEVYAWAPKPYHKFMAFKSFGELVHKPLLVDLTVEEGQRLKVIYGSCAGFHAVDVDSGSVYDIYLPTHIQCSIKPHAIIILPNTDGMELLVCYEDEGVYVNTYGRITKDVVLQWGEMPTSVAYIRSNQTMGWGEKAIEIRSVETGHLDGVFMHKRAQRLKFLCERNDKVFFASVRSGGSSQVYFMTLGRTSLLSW
T2 sequence (Q8N568 whole entry): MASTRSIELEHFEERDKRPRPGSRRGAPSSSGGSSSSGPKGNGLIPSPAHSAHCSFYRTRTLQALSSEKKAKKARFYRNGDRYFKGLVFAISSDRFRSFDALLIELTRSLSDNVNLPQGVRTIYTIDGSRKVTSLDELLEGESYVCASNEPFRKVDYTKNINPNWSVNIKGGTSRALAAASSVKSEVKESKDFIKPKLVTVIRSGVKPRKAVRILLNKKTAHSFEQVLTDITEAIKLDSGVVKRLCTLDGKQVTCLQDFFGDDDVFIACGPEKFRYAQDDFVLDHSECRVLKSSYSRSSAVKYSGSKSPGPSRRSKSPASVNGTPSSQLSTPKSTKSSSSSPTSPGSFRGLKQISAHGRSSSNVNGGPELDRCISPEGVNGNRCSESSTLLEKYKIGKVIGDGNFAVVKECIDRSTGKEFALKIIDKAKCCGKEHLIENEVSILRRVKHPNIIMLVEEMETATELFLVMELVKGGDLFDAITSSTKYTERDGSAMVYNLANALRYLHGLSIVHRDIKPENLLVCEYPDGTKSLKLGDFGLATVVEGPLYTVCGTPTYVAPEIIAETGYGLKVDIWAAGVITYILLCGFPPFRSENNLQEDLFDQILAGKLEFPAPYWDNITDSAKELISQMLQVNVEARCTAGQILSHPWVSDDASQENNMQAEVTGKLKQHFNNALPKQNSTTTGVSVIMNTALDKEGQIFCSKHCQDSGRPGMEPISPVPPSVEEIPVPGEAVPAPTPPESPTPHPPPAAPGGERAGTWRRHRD
TXK, sequence (P42681 whole entry): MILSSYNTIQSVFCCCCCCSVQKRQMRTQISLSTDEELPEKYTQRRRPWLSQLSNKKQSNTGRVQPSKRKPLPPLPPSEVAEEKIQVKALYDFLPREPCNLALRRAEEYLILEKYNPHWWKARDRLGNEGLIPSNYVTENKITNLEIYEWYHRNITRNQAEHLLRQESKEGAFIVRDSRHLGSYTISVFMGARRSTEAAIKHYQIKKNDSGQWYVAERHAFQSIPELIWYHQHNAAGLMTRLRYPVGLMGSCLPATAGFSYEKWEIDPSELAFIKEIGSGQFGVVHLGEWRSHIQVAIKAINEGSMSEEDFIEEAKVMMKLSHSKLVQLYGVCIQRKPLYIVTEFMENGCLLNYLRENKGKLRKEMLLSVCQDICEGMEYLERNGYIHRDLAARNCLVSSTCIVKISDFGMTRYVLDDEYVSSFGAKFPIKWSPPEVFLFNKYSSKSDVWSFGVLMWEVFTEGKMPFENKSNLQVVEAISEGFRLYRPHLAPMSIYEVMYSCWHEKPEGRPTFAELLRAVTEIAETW
T1 sequence (O15075 whole entry): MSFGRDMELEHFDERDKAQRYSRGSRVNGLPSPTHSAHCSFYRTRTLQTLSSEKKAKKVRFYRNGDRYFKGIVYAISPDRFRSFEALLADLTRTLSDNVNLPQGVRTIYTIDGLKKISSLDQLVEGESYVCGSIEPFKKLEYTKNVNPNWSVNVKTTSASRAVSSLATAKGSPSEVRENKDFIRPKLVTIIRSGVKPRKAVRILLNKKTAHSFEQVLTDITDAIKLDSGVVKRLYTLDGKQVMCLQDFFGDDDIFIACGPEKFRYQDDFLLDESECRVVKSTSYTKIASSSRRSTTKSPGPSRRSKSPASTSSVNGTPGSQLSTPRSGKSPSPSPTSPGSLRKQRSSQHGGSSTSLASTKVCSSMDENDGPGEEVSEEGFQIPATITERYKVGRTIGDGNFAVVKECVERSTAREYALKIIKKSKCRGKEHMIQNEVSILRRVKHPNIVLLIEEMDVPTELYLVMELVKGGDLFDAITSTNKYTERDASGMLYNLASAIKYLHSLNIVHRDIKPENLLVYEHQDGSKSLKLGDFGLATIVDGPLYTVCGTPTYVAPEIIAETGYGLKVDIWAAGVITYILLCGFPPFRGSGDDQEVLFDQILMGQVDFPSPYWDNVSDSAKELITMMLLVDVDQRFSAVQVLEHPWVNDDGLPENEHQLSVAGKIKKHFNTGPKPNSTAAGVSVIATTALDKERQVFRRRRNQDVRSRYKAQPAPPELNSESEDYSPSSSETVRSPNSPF

A remaining activity at 0.3 µM (BRAF; [1]) of 87.3%, a remaining activity at 0.3 µM (BRAF; [2]) of 85.1% and a remaining activity at 0.3 µM (CAMK2g; [1]) of 157% were found for `COc1cc(N2CCN(C)CC2)c(C)cc1Nc1ncc(Br)c(Nc2cccnc2N(C)C)n1` [TP-5801] in this work. It also gave a remaining activity at 0.3 µM (CAMK2g; [2]) of 153%, a remaining activity at 0.3 µM (DCAMKL1; [1]) of 94.9% and a remaining activity at 0.3 µM (DCAMKL1; [2]) of 93.4%. It also gave a remaining activity at 0.3 µM (DCAMKL2; [1]) of 93.7%, a remaining activity at 0.3 µM (DCAMKL2; [2]) of 89.7% and a remaining activity at 0.3 µM (DMPK2) of 109%. The remaining activity at 0.3 µM (FAK/PTK2; [1]) was 12.3%, the remaining activity at 0.3 µM (FAK/PTK2; [2]) was 11.4% and the remaining activity at 0.3 µM (GRK1; [1]) was 118%. The remaining activity at 0.3 µM (GRK1; [2]) was 109%, the remaining activity at 0.3 µM (HGK/MAP4K4; [1]) was 103% and the remaining activity at 0.3 µM (HGK/MAP4K4; [2]) was 102%. The remaining activity at 0.3 µM (JNK2; [1]) was 97%, the remaining activity at 0.3 µM (JNK2; [2]) was 96.3% and the remaining activity at 0.3 µM (MKK7; [1]) was 103%. It also gave a remaining activity at 0.3 µM (MKK7; [2]) of 102%, a remaining activity at 0.3 µM (OSR1/OXSR1; [1]) of 110% and a remaining activity at 0.3 µM (OSR1/OXSR1; [2]) of 104%. For the same compound, the remaining activity at 0.3 µM (P38b/MAPK11; [1]) was 102%, the remaining activity at 0.3 µM (P38b/MAPK11; [2]) was 101% and the remaining activity at 0.3 µM (PIM3; [1]) was 96%. The remaining activity at 0.3 µM (PIM3; [2]) was 95.5%, the remaining activity at 0.3 µM (PKAcb; [1]) was 98% and the remaining activity at 0.3 µM (PKAcb; [2]) was 96.7%. It also gave a remaining activity at 0.3 µM (PKCzeta; [1]) of 97.2%, a remaining activity at 0.3 µM (PKCzeta; [2]) of 97.1% and a remaining activity at 0.3 µM (SBK1; [1]) of 99%. The remaining activity at 0.3 µM (SBK1; [2]) was 95.5%, the remaining activity at 0.3 µM (TRKB; [1]) was 96.1% and the remaining activity at 0.3 µM (TRKB; [2]) was 95.9%. For the same compound, the remaining activity at 0.3 µM (TXK; [1]) was 114%, the remaining activity at 0.3 µM (TXK; [2]) was 112% and the remaining activity at 0.3 µM (ULK2; [1]) was 86.5%. It also gave a remaining activity at 0.3 µM (ULK2; [2]) of 82.4%, a remaining activity at 0.3 µM (WNK3; [1]) of 87.5% and a remaining activity at 0.3 µM (WNK3; [2]) of 86.5%.
